In ChEMBL document CHEMBL4665650, “Towards a TREK-1/2 (TWIK-Related K+ Channel 1 and 2) dual activator tool compound: Multi-dimensional optimization of BL-1249” (Bioorg Med Chem Lett, 2019):

What was measured:
[1] = target: T1, Potassium channel subfamily K member 10 (Homo sapiens, UniProt P57789); assay: Activation of human TREK2 by thallium flux mobilization assay
T1 sequence (P57789 whole entry): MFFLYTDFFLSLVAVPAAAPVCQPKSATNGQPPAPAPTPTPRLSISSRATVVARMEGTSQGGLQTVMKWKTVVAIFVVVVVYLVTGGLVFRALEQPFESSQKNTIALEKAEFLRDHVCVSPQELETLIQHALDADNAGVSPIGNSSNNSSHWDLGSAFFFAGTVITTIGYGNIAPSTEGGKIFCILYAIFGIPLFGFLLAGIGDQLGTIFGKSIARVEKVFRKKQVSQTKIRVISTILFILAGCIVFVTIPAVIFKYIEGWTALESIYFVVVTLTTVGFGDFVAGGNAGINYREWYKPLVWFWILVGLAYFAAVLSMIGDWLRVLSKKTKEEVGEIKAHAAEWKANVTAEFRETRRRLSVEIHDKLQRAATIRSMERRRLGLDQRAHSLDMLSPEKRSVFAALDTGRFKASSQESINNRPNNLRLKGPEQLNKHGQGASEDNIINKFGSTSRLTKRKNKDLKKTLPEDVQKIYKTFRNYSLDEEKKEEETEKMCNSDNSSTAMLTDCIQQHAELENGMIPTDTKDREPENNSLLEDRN

[2] = target: T2, Potassium channel subfamily K member 2 (Homo sapiens) (UniProt O95069); assay: Activation of human TREK1 at 30 uM by thallium flux mobilization assay relative to control
T2 sequence (whole entry): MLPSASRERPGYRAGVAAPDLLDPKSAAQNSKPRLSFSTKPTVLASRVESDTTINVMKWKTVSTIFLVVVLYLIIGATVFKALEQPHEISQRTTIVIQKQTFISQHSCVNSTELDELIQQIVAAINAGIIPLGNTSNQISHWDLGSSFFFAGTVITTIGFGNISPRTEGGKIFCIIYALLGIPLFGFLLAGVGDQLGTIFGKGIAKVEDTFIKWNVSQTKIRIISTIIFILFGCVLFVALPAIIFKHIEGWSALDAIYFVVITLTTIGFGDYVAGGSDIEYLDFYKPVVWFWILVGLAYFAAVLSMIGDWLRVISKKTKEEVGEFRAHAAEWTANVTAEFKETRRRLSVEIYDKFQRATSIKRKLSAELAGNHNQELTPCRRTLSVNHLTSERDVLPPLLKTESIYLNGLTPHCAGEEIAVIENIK

[3] = target: T3, Potassium channel subfamily K member 2 (Homo sapiens, UniProt O95069); assay: Activation of human TREK1 by thallium flux mobilization assay
T3 sequence (O95069 whole entry): T2 sequence (whole entry)

[4] = target: T4, Potassium channel subfamily K member 10 (Homo sapiens) (UniProt P57789); assay: Activation of human TREK2 at 30 uM by thallium flux mobilization assay relative to control
T4 sequence (whole entry): T1 sequence (P57789 whole entry)

[5] = Fraction unbound in human plasma; format: ADME, cell-free
[6] = Fraction unbound in rat plasma; format: ADME, cell-free
[7] = Fraction unbound in mouse plasma; format: ADME, cell-free
[8] = target: T2, Potassium channel subfamily K member 2 (Homo sapiens); assay: Activation of human TREK1 at 10 uM by thallium flux mobilization assay relative to control
[9] = target: T4, Potassium channel subfamily K member 10 (Homo sapiens); assay: Activation of human TREK2 at 10 uM by thallium flux mobilization assay relative to control
[10] = target: Androgen receptor (Homo sapiens) (UniProt P10275); assay: Displacement of [3H]methyltrienolone from human LNCaP cells derived androgen receptor at 30 uM measured after 1200 mins by radiometric scintillation analysis relative to control; format: cell-based
[11] = Elimination half life in rat at 3 mg/kg, po; format: ADME, organism-based; settings: in vivo, read-out: beta t1/2 (converted)
[12] = target: Adenosine receptor A1 (Homo sapiens) (UniProt P30542); assay: Displacement of [3H]DPCPX from recombinant full length human adenosine A1 receptor expressed in CHO-K1 cells at 30 uM incubated for 90 mins by radiometric scintillation analysis relative to control; format: cell-based
Adenosine receptor A1 (Homo sapiens), sequence (P30542 whole entry): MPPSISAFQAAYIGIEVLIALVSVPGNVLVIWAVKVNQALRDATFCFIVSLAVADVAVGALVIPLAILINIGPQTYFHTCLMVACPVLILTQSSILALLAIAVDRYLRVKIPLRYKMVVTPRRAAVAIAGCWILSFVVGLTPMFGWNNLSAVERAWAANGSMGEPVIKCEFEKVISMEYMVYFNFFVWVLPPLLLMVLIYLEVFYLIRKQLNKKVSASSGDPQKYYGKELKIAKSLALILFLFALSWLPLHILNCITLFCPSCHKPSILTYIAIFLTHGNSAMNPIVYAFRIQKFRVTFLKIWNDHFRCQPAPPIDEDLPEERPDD

[13] = target: Adenosine receptor A2a (Homo sapiens) (UniProt P29274); assay: Displacement of [3H]CGS-21680 from full length recombinant human A2A receptor expressed in HEK293 cells at 30 uM measured after 90 mins by radiometric scintillation analysis relative to control; format: cell-based
Adenosine receptor A2a (Homo sapiens), sequence (P29274 whole entry): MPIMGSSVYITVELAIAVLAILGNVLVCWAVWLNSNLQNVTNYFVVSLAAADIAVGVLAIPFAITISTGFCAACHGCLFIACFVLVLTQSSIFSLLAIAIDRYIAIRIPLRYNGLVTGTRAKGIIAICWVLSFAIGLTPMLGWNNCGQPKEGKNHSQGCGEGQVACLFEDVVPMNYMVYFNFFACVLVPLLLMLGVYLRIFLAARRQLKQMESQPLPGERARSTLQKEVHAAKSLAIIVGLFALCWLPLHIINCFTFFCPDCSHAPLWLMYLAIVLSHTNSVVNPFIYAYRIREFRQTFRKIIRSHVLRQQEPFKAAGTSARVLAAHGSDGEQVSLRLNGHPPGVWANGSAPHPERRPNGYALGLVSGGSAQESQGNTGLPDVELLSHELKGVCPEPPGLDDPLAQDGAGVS

[14] = target: Kv7.1 (Homo sapiens, UniProt P51787); assay: Inhibition of Kv7.1 (unknown origin) at 30 uM by manual patch clamp method relative to control
Kv7.1, sequence (P51787 whole entry): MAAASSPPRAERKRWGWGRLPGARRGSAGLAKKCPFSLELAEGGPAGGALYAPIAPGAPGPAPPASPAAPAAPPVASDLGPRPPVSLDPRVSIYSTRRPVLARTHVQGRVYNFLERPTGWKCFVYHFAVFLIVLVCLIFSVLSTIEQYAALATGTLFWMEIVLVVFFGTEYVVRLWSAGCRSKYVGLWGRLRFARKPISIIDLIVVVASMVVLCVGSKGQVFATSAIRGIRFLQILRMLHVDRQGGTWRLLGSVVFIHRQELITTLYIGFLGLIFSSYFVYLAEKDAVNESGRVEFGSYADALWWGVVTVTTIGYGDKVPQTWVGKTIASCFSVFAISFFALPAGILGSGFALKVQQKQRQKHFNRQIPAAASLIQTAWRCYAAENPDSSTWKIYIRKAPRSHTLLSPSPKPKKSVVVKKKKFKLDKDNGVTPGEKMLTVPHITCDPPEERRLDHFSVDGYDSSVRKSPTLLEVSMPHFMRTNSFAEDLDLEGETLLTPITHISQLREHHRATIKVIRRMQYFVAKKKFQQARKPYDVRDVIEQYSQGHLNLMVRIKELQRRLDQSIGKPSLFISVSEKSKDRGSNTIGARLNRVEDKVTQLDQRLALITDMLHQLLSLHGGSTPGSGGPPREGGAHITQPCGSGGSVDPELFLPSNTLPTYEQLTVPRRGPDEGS

[15] = AUC in rat at 3 mg/kg, po; format: ADME, organism-based; parameters: dose 3 mg/kg; settings: in vivo
[16] = target: Sodium-dependent dopamine transporter (Homo sapiens) (UniProt Q01959); assay: Displacement of [125I]RTI-55 from full length recombinant human dopamine transporter expressed in CHO-S cells at 30 uM after 180 mins by radiometric scintillation analysis relative to control; format: cell-based
[17] = target: Potassium voltage-gated channel subfamily KQT member 3 (Homo sapiens) (UniProt O43525); assay: Inhibition of Kv7.3 (unknown origin) at 30 uM by manual patch clamp method relative to control
[18] = target: Sodium-dependent noradrenaline transporter (Homo sapiens) (UniProt P23975); assay: Displacement of [125I]RTI-55 from full length recombinant human NET expressed in MDCK cells at 30 uM after 180 mins by radiometric scintillation analysis relative to control; format: cell-based
Sodium-dependent noradrenaline transporter (Homo sapiens), sequence (P23975 whole entry): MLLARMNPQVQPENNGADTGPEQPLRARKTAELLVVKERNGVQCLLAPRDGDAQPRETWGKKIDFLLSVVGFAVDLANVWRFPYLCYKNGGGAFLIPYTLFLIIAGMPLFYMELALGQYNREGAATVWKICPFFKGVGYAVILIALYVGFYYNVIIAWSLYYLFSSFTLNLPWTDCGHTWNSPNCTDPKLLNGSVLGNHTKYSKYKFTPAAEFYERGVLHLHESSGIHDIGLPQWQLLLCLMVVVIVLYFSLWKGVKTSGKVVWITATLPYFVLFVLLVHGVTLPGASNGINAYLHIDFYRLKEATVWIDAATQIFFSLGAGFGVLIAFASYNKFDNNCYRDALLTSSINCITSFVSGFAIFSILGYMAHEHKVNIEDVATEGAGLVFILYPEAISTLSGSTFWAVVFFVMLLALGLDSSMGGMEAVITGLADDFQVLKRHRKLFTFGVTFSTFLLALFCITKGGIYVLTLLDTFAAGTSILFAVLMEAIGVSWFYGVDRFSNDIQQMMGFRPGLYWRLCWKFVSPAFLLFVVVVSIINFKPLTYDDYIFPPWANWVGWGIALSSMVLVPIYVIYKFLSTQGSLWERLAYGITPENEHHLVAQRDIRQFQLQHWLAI

[19] = target: 5-hydroxytryptamine receptor 1A (Homo sapiens) (UniProt P08908); assay: Displacement of [3H]-8-OH-DPAT from full length recombinant human 5HT1A receptor expressed in CHO-K1 cells at 30 uM incubated for 60 mins by radiometric scintillation analysis relative to control; format: cell-based
[20] = Cmax in rat at 3 mg/kg, po; format: ADME, organism-based; parameters: route oral, dose 3 mg/kg; settings: in vivo
[21] = target: A-type voltage-gated potassium channel KCND3 (Homo sapiens, UniProt Q9UK17); assay: Activation of Kv4.3 (unknown origin) at 30 uM by manual patch clamp method relative to control
[22] = species: Rattus norvegicus; assay: Displacement of [125I]-Triiodothyronine from thyroid hormone receptors in rat at 30 uM incubated for 1080 mins by radiometric scintillation analysis relative to control
[23] = target: Intermediate conductance calcium-activated potassium channel protein 4 (Homo sapiens) (UniProt O15554); assay: Activation of Kca3.1 (unknown origin) at 30 uM by manual patch clamp method relative to control
[24] = target: Cysteinyl leukotriene receptor 1 (Homo sapiens) (UniProt Q9Y271); assay: Displacement of [3H]LTD4 from full length recombinant human CysLT1 Leukotriene receptor expressed in CHO-K1 cells at 30 uM incubated for 30 mins by radiometric scintillation analysis relative to control; format: cell-based
Cysteinyl leukotriene receptor 1 (Homo sapiens), sequence (Q9Y271 whole entry): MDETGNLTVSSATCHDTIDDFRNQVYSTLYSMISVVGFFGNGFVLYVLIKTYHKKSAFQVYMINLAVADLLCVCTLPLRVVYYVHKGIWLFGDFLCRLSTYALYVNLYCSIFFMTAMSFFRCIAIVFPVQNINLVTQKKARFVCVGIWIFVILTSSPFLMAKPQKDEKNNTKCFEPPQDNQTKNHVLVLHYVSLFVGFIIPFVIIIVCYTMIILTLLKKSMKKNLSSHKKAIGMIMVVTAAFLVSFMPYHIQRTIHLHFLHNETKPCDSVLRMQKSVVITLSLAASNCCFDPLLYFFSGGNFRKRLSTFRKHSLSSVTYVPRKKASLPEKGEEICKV

[25] = species: Rattus norvegicus; assay: Displacement of [3H]GABA from rat brain GABA receptor at 30 uM after 20 mins by radiometric scintillation analysis relative to control
[26] = target: Inward rectifier potassium channel 2 (Homo sapiens, UniProt P63252); assay: Activation of Kir2.1 (unknown origin) at 30 uM by manual patch clamp method relative to control
Inward rectifier potassium channel 2, sequence (P63252 whole entry): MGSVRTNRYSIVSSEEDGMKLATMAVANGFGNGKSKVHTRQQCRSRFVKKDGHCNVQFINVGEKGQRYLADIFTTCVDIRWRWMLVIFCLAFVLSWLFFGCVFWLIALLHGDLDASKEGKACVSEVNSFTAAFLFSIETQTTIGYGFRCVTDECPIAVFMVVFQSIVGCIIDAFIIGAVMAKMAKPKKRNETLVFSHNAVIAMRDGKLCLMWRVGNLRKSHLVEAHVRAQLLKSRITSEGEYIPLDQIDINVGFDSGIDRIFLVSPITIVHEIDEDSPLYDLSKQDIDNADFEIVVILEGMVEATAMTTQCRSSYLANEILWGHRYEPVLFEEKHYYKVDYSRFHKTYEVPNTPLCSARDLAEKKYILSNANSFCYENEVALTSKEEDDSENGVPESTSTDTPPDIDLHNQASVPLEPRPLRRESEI

[27] = target: Neuronal acetylcholine receptor subunit alpha-7 (Homo sapiens) (UniProt P36544); assay: Inhibition of alpha7 nAChR (unknown origin) at 30 uM by manual patch clamp method relative to control
[28] = target: Potassium voltage-gated channel subfamily A member 3 (Homo sapiens) (UniProt P22001); assay: Inhibition of Kv1.3 (unknown origin) at 30 uM by manual patch clamp method relative to control
Potassium voltage-gated channel subfamily A member 3 (Homo sapiens), sequence (P22001 whole entry): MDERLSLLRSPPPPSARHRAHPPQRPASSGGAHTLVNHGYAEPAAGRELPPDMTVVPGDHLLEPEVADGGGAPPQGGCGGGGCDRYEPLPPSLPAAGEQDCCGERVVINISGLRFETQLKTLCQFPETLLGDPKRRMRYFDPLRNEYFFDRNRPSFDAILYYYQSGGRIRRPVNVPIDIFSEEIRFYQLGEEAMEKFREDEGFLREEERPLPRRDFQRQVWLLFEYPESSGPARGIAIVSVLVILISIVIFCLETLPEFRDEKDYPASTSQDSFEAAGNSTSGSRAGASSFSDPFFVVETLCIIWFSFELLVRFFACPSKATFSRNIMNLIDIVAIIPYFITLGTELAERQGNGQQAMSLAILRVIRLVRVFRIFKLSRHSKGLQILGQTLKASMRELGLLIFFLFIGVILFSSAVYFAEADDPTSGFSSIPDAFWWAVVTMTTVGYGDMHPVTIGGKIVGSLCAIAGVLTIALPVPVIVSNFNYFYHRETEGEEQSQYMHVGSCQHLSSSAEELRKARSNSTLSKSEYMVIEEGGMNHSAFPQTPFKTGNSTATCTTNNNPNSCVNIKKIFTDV

[29] = target: A-type potassium channel modulatory protein KCNIP2 (Homo sapiens) (UniProt Q9NS61); assay: Inhibition of KCHiP (unknown origin) at 30 uM by manual patch clamp method relative to control
A-type potassium channel modulatory protein KCNIP2 (Homo sapiens), sequence (Q9NS61 whole entry): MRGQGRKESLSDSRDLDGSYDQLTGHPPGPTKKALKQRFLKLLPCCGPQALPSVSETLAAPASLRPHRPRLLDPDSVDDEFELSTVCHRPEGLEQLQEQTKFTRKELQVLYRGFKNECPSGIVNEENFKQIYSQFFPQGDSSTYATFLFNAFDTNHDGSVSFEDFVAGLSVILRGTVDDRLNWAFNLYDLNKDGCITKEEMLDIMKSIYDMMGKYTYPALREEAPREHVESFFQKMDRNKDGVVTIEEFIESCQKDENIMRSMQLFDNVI

[30] = species: Rattus norvegicus; assay: Displacement of [35S] dATPalphaS from Wistar rat brain P2Y receptor at 30 uM incubated for 180 mins by radiometric scintillation analysis relative to control; format: tissue-based
[31] = target: Potassium/sodium hyperpolarization-activated cyclic nucleotide-gated channel 4 (Homo sapiens) (UniProt Q9Y3Q4); assay: Activation of HCN4 (unknown origin) at 30 uM by manual patch clamp method relative to control
Potassium/sodium hyperpolarization-activated cyclic nucleotide-gated channel 4 (Homo sapiens), sequence (Q9Y3Q4 whole entry): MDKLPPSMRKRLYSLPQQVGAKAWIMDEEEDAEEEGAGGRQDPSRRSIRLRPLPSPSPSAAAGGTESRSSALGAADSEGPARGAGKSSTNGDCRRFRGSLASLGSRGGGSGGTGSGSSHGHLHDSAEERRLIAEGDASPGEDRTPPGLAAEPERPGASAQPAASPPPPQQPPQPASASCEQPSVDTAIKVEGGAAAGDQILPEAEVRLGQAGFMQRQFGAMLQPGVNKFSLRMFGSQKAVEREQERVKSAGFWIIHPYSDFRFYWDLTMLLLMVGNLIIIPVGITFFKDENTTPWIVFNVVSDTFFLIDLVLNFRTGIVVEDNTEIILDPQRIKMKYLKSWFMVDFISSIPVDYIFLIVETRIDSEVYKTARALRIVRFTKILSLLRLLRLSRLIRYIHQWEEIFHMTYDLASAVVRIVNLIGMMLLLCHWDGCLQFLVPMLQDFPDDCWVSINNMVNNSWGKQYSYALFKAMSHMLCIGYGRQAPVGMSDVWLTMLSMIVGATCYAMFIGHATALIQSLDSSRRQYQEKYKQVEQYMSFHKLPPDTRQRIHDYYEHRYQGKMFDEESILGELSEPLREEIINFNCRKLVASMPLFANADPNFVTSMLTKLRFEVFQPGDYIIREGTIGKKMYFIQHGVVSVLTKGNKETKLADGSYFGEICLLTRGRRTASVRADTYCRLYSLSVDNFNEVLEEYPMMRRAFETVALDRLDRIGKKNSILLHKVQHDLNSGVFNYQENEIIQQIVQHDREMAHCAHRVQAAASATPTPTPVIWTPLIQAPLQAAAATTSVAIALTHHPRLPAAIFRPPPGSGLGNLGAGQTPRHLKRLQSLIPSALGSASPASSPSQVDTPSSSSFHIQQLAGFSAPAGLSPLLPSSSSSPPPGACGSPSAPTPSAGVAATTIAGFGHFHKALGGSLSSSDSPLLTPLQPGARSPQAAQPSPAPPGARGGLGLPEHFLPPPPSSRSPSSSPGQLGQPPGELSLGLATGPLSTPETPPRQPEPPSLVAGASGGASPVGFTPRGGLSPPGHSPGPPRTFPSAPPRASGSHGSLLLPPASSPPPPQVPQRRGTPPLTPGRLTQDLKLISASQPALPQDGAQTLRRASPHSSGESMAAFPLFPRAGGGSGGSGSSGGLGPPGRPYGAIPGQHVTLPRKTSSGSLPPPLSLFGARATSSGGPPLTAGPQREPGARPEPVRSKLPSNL

In the case of `Cc1sc(NC(=O)c2ccc(SC(F)(F)F)cc2)c(C(=O)O)c1C`, the EC50 [1] is reported as less than 3.6 µM, the Activity [2] is reported as 31% and the EC50 [3] is reported as less than 3.1 µM. The Activity [4] was 12%.
Molecule `O=C(Nc1ccc([N+](=O)[O-])cc1C(=O)O)c1ccc(SC(F)(F)F)cc1` has an EC50 [1] of 26.5 µM, an Activity ([2]; filed as activator) of 56% and an EC50 [3] of 13.7 µM. It also gave an Activity ([4]; filed as activator) of 65%.
In the case of `O=C(O)c1cccc(NC(=O)c2ccccc2C(F)(F)F)c1`, the Activity [2] is reported as -14% and the Activity [4] is reported as -1%.
For `O=C(O)c1cccc(NC(=O)c2cccc(C(F)(F)F)c2)c1`, the Activity [2] was -10% and the Activity [4] was -3%.
`O=C(Nc1ccccc1C(=O)O)c1cccc(C(F)(F)F)c1` gave an Activity [2] of 28% and an Activity [4] of 12%.
In the case of `O=C(O)c1cccc(NC(=O)c2ccc(C(F)(F)F)cc2)c1`, the Activity [2] is reported as -11% and the Activity [4] is reported as 0%.
In the case of `O=C(Nc1sc(-c2ccccc2)cc1C(=O)O)c1ccc(SC(F)(F)F)cc1`, the EC50 [1] is reported as greater than 30 µM, the Activity ([2]; filed as activator) is reported as 83% and the EC50 [3] is reported as 22.4 µM. The Activity ([4]; filed as activator) was 49%.
Work on `O=C(O)Cc1ccccc1NC(=O)c1ccc(C(F)(F)F)cc1` yielded an Activity [2] of -6% and an Activity [4] of 0%.
With `O=C(Nc1cc(Br)ccc1C(=O)O)c1ccc(SC(F)(F)F)cc1` the EC50 [1] was 5.9 µM, the Activity ([2]; filed as activator) was 76% and the EC50 [3] was 4.3 µM. The Activity ([4]; filed as activator) was 74%.
Molecule `O=C(Nc1sccc1C(=O)O)c1ccc(SC(F)(F)F)cc1` has an EC50 [1] greater than 30 µM, an Activity ([2]; filed as activator) of 58% and an EC50 [3] greater than 30 µM. For the same molecule, the Activity [4] was 28%.
Work on `O=C(Nc1ccoc1C(=O)O)c1ccc(SC(F)(F)F)cc1` yielded an Activity [2] of 8% and an Activity [4] of 5%.
`O=C(Nc1ccc(Br)cc1C(=O)O)c1ccc(SC(F)(F)F)cc1` gave an EC50 [1] of 7.7 µM, a fraction unbound [5] of 0.003 and a fraction unbound [6] of 0.013. For the same molecule, the Activity ([2]; filed as activator) was 114%, the EC50 [3] was 5.9 µM and the Activity ([4]; filed as activator) was 101%. It also gave a fraction unbound [7] of 0.029.
Molecule `O=C(Nc1ccccc1-c1nnn[nH]1)c1ccc2c(c1)CCCC2` has an Activity [8] of 24%, an EC50 [3] of 13.1 µM and an Activity [9] of 21%.
In the case of `O=C(O)Cc1cccc(NC(=O)c2cccc(C(F)(F)F)c2)c1`, the Activity [2] is reported as -1% and the Activity [4] is reported as 1%.
`O=C(Nc1cccc2c1CCCC2)c1ccccc1-c1nnn[nH]1` showed an Activity [8] of 0% and an Activity [9] of 1%.
`O=C(Nc1ncncc1C(=O)O)c1ccc(SC(F)(F)F)cc1` showed an Activity [2] of -4% and an Activity [4] of 0%.
Molecule `O=C(O)c1ccccc1NC(=O)c1ccccc1C(F)(F)F` has an Activity [2] of 1% and an Activity [4] of -3%.
Molecule `O=C(Nc1cc(F)c(Br)cc1C(=O)O)c1ccc(SC(F)(F)F)cc1` has an inhibition [10] of 79%, a half-life [11] of 6.3 h and an inhibition [12] of 70%. The inhibition [13] was 55%, the EC50 [1] was 5.5 µM and the inhibition at 30 µM [14] was 57%. It also gave an AUC [15] of 60.6 µM·h, an inhibition [16] of 67% and an inhibition [17] of 39%. The inhibition [18] was 77%, the inhibition [19] was 79% and the fraction unbound [5] was 0.003. The Cmax [20] was 8.8 µM, the fraction unbound [6] was 0.041 and the Activity ([2]; filed as activator) was 101%. The Activity [21] was -21%, the inhibition [22] was 79% and the Activity [23] was -9%. The inhibition [24] was 69%, the inhibition [25] was 70% and the EC50 [3] was 6.1 µM. The Activity ([4]; filed as activator) was 84%, the Activity [26] was -16% and the inhibition [27] was 7%. For the same molecule, the inhibition [28] was 94%, the inhibition [29] was 76% and the inhibition [30] was 90%. It also gave an Activity [31] of -32% and a fraction unbound [7] of 0.052.
